US11512097B2, “Heterocyclic compounds as Delta-5 desaturase inhibitors and methods of use” (Amgen Inc., priority 2019, dated 2022)

Tested on: Diet-Induced Obese (DIO) mice
Experiment: Assessment of D5D inhibitor in Diet-Induced Obese (DIO) mice
Format: in vivo, Male C57BL/6J DIO mice
Details: for Fat mass / Lean mass: day 78, EchoMRI; for Blood glucose: day 81, non-fasted; for AA / DGLA: day 81, non-fasted plasma; for Body weight / Liver weights / epididymal WAT / inguinal WAT / mesenteric WAT: day 84; for Adiponectin / Cholesterol / Insulin / LDL cholesterol / Leptin / Resisten / Triglycerides: day 84, 4-hour fasted plasma
From the text: Assessment of D5D Inhibitor in Diet-Induced Obese (DIO) Mice
Male C57BL/6J DIO mice (Jackson Laboratories, Stock No.: 380050) were fed high-fat diet (Research Diets, Inc., D12492) for 12 weeks. All animals were given free access to water and chow. Animals were acclimated to per os dosing for 3 days prior to the start of the experiment. Animals were randomized on body weight, fat mass, lean mass, and blood glucose concentrations in to groups of 8 to 10 animals per group. Animals were twice daily dosed per os with either: vehicle (2% hydroxypropyl methylcellulose and 1% tween 80 in water), Example 2 at 10 mg/kg, or 30 mg/kg (formulated in 2% hydroxypropyl methylcellulose and 1% tween 80 in water), or Example 45 at 3 mg/kg, or 10 mg/kg (formulated in 2% hydroxypropyl methylcellulose and 1% tween 80 in water). Three-day average (Example 2) or daily average (Example 45) food consumption was measured at the indicated times as shown in Table 17 and Table 18. Body composition (EchoMRI) was determined on day 78 for Example 2 and day 22 for Example 45. For Example 2, a non-fasted blood collection was performed on day 81; blood glucose was immediately measured, and plasma samples created from the remaining blood and used to measure DGLA and AA concentrations. On day 84, a 4-hour fasted blood collection was performed, and plasma samples were created from the blood and used to measure cholesterol, triglycerides, low-density lipoprotein (LDL) cholesterol, insulin, and adipokine (adiponectin, leptin, and resistin) levels. For Example 45, 4 hour fasted blood samples were collected on day 25 and blood glucose was measured immediately and the plasma samples created from the remaining blood were used to measure cholesterol, triglycerides, LDL cholesterol, insulin, DGLA and AA concentration. At the end of the studies, liver, epididymal white adipose tissue, inguinal white adipose tissue, mesenteric (only Example 2) white adipose tissue weights were recorded. Data was analyzed using GraphPad Prism v 7.04.
The D5D inhibitor dose-dependently led to weight loss over the course of the experiment (Table 17 and Table 18) compared to vehicle controls. Consistently fat mass was reduced, along with lower inguinal, epididymal and mesenteric white adipose tissue (WAT) weights at necropsy. Blood glucose and plasma insulin levels were both reduced by the D5D inhibitor, along with reductions in plasma cholesterol and triglycerides. Evidence of target engagement was established by observing increases in plasma DGLA and decreases in plasma AA.

[1] = Example 2 10 mg/kg twice daily per os
[2] = Example 2 30 mg/kg twice daily per os

Cc1nn2c(=O)c(-c3cnn(CC(F)(F)C(F)(F)F)c3)c(C(F)(F)F)nc2s1 [Example 2, 2-methyl-6-[1-(2,2,3,3,3-pentafluoropropyl)-1H-pyrazol-4-yl]-7-(trifluoromethyl)-5H-[1,3,4]thiadiazolo[3,2-a]pyrimidin-5-one]
Fat mass [1]: 11.4 ± 0.6 g
Lean mass [1]: 26.4 ± 0.6 g
Blood glucose [1]: 165.3 ± 4.6 mg/dL
AA [1]: 14.5 ± 0.9 µg/mL
DGLA [1]: 167.8 µg/mL
Body weight [1]: 38.1 ± 1.0 g
Liver weights [1]: 3.0 ± 0.2 g
epididymal WAT [1]: 1.2 ± 0.1 g
inguinal WAT [1]: 1.2 ± 0.1 g
mesenteric WAT [1]: 0.4 ± 0.0 g
Adiponectin [1]: 48.3 ± 17.7 ng/mL
Cholesterol [1]: 224.5 ± 7.3 mg/dL
Insulin [1]: 1.8 ± 0.3 ng/mL
LDL cholesterol [1]: 85.9 ± 3.8 mg/dL
Leptin [1]: 10.7 ± 3.6 ng/mL
Resisten [1]: 0.9 ± 0.2 ng/mL
Triglycerides [1]: 14.3 ± 1.2 mg/dL
Food consumption (Example 2 10 mg/kg twice daily per os, days 0-2, three-day average): 2.5 ± 0.2 g/day
Food consumption (Example 2 10 mg/kg twice daily per os, days 70-72, three-day average): 2.5 ± 0.1 g/day
Fat mass [2]: 5.7 ± 0.6 g
Lean mass [2]: 26.1 ± 0.4 g
Blood glucose [2]: 152.1 mg/dL
AA [2]: 10.7 ± 0.6 µg/mL
DGLA [2]: 137.7 µg/mL
Body weight [2]: 32.3 ± 0.9 g
Liver weights [2]: 3.2 ± 0.1 g
epididymal WAT [2]: 0.75 ± 0.1 g
inguinal WAT [2]: 0.5 ± 0.1 g
mesenteric WAT [2]: 0.2 ± 0.0 g
Adiponectin [2]: 51.0 ± 24.4 ng/mL
Cholesterol [2]: 207.5 mg/dL
Insulin [2]: 1.4 ± 0.2 ng/mL
LDL cholesterol [2]: 80.6 ± 3.9 mg/dL
Leptin [2]: 3.2 ± 1.6 ng/mL
Resisten [2]: 0.7 ± 0.2 ng/mL
Triglycerides [2]: 12.8 ± 1.0 mg/dL
Food consumption (Example 2 30 mg/kg twice daily per os, days 0-2, three-day average): 2.5 ± 0.2 g/day
Food consumption (Example 2 30 mg/kg twice daily per os, days 70-72, three-day average): 2.7 ± 0.1 g/day
